Read-outs that look alike come from different tables or passages of the source.
Legend:
[1] = system: microsomal metabolism of RPG in HLM; assay: In vitro inhibition of RPG metabolism by QCT in HLM; type: in vitro ADME, human; conditions: HLM
Procedure: The intrinsic metabolic clearance (CLint) was calculated as Vmax/Km. […] The parameter α is indicative of the inhibition type. The mixed model is a general equation that includes competitive, uncompetitive, and noncompetitive inhibition as special cases. When α = 1, the mixed model is identical to a noncompetitive inhibition. When α is very large (α→∞) or very small (α→0), the mixed model becomes identical to competitive inhibition or uncompetitive inhibition, respectively.

[2] = Microsomal protein binding by rapid equilibrium dialysis (HLM)
Procedure: A 200 μL spiked samples and 400 μL PBS were placed into the “sample” and “buffer” chambers of the RED device, respectively. After 4-h incubation to equilibrate between the buffer and plasma compartments, the RED plate was sampled from both compartments. The samples were matrix-matched for analysis by addition of either diluted plasma or buffer; (a) blank diluted plasma added to the buffer samples and (b) blank buffer added to the diluted plasma sample, at a ratio of 50:50 v/v. The unbound fractions in microsomes and diluted plasma were determined by dividing the analyte/IS peak area ratios of the (a) sample by those of the (b) sample. The unbound fraction in diluted plasma (fu,d) was converted to the unbound fraction in undiluted plasma (fu) using a Kalvass equation as below (DF: dilution factor). (1) fu=1/DF/[(1/fu,d)−1]+1/DF

[3] = In vivo intravenous pharmacokinetic study of RPG without or with QCT in rats; parameters: species or system Sprague-Dawley rats; conditions: for AUC / clearance / half-life / Vd: Sprague-Dawley, rat, plasma, 0.4 mg/kg; for Vd: read-out: Vss
Procedure: Rats were anesthetized via intramuscular injection of 10 mg/kg zoletil. The femoral vein and artery of the rats were cannulated using a polyethylene tube (BD Medical, Franklin Lakes, NJ, USA). […] The vehicle solutions for the intravenous and oral doses were composed of PEG 400 and aqueous 0.3% CMC solution (50:50 v/v). Approximately 300 μL of blood was collected via the femoral artery at 0, 1, 5, 15, 30, 60, 90, 120, 180, and 240 min after intravenous injection and at 10, 20, 30, 45, 60, 90, 120, 180, and 240 min after oral administration.
Non-compartmental analysis (WinNonlin, version 3.1, NCA200 and 201; Certara, Inc., Princeton, NJ, USA) was conducted to estimate the following pharmacokinetic parameters: total area under the plasma concentration–time curve from time zero to time infinity (AUC); total body clearance (CL, calculated as dose/AUC); terminal half-life (t1/2); and apparent volume of distribution at steady state (Vss). For comparison, the extent of absolute oral bioavailability (F; expressed as percent of dose administered) was calculated by dividing the dose-normalized AUC after oral administration by the dose-normalized AUC after intravenous injection. The peak plasma concentration (Cmax) and time to reach Cmax (Tmax) were obtained directly from the measured experimental data.

[4] = RPG 0.4 mg/kg iv, QCT 25 mg/kg iv
[5] = iv, RPG 0.4 mg/kg iv with QCT 25 mg/kg iv
[6] = iv, RPG 0.4 mg/kg iv, RPG alone

Km of RPG metabolism in the Ki estimation study ([1]; QCT 0 μM): 23 µM | Km of RPG metabolism in the Ki estimation study ([1]; QCT 200 μM): 111 µM | Change of fuMIC of RPG by the presence of QCT ([2]; HLM, RPG and QCT 5 μM each): not significantly altered | fraction unbound at 4 h, 5 μM ([2]; human, liver microsomes): 0.62 ± 0.152 | Hepatic availability (FH) ([3]; 1 − EH): 0.818–0.886 | AeU ([3]; RPG 0.4 mg/kg iv with QCT 25 mg/kg iv): 1.32 ± 0.88 % of dose | AUC of RPG higher with concurrent QCT than in control rats [3, 4]: 83.4% | CL of RPG lower with concurrent QCT than in control rats [3, 4]: 44.9% | Difference in Vss of RPG between QCT and control groups [3, 4]: no significant differences | t1/2 of RPG higher with concurrent QCT than in control rats [3, 4]: 40.8% | AeU ([3]; RPG 0.4 mg/kg iv, RPG alone): 1.60 ± 0.77 % of dose | Increase of AUC of intravenous RPG after concurrent QCT ([3]; RPG iv with QCT iv vs RPG alone): 1.83 fold | AUC [3, 5]: 1550 ng·h/mL | clearance [3, 5]: 4.36 ± 0.54 mL/min/kg | half-life [3, 5]: 57.4 ± 10.6 min | Vd [3, 5]: 0.269 ± 0.025 L/kg | AUC [3, 6]: 845 ng·h/mL | clearance [3, 6]: 7.92 ± 0.47 mL/min/kg | half-life [3, 6]: 40.8 ± 4.2 min | Vd [3, 6]: 0.293 ± 0.018 L/kg | Urinary and fecal excretion of RPG administered intravenously ([3]; iv): ≤ 1.60 % of the dose | Hepatic clearance CLH (blood clearance, CL/RB) ([3]; iv RPG alone, assuming exclusive hepatic metabolism): 9.11 mL/min/kg
Structure (SMILES): CCOc1cc(CC(=O)N[C@@H](CC(C)C)c2ccccc2N2CCCCC2)ccc1C(=O)O [RPG, Repaglinide]
